Test results published in patent US10202346B2, “Phenol derivatives and the pharmaceutical or cosmetic use thereof” (Galderma Research & Development, priority 2009, dated 2019).

Tests used:
[1] = molecular target: T1, receptors of AR type (Homo sapiens, UniProt P10275); assay: AR transactivation test in PALM (PC3 Androgen receptor Luciferase MMTV) cell line; assay type: cell-based; settings: cross curves against reference agonist methyltrienolone, read-out: Kdapp (apparent dissociation constant)
T1 construct: expressed in transfected cells; host or cells: PALM cells (PC3 stably transfected with PMMTV-neo-Luc and pSG5puro-AR)
T1 sequence (P10275 1-920): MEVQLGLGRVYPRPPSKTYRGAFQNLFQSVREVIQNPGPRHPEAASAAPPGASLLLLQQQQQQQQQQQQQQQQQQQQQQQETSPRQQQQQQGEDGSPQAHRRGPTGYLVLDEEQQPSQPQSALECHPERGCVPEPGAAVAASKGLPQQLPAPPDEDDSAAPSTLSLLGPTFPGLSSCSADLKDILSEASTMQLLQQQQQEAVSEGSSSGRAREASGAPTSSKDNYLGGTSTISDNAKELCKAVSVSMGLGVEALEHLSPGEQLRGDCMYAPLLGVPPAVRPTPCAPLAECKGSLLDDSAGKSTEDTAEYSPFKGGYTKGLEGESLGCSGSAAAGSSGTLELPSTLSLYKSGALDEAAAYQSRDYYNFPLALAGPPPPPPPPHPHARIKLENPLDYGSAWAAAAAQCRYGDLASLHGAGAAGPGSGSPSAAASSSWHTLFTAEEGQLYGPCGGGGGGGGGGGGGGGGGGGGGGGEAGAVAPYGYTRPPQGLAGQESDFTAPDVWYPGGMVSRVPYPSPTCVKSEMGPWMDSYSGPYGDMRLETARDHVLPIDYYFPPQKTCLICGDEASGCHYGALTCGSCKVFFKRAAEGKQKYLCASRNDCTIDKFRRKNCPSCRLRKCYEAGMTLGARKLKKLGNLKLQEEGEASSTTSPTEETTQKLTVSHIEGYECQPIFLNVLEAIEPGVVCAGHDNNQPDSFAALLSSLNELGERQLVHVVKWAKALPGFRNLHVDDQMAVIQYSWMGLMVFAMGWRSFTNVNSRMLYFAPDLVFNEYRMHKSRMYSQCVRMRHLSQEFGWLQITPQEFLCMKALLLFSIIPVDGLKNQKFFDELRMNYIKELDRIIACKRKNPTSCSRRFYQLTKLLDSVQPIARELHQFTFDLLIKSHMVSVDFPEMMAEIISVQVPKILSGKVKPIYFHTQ
Method: The compounds according to the invention show inhibitory properties on receptors of AR type. This AR receptor-inhibiting activity is measured in a transactivation test through the KdR (resting), KdA (active) and Kdapp (apparent) dissociation constants according to the method set out in J. Molecular Biology (1965), 12(1), 88-118, Monod J. of et al.
The transactivation test is carried out in the PALM (PC3 Androgen receptor Luciferase MMTV) cell line which is a stable transfectant containing the PMMTV-neo-Luc (reporter gene) and pSG5puro-AR plasmids.
In this study, the affinity of each product for the 2 receptor states (KdR and KdA) is determined, as is an apparent Kd (KdApp). This constant is a result of the 2 Kd, but also depends on the initial equilibrium of the receptor between the active state and the resting state (L0) and on its expression level. It is determined by means of the following formula: 1/KdApp=(L0/(1+L0))×(1/KdR)+(1/(1+L0))×(1/KdA)
To determine these constants, “cross curves” of the test product against a reference agonist, methyltrienolone, are produced in 96-well plates. The test product is used at 10 concentrations and the reference agonist at 7 concentrations, […]

SMILES	melting point	Kd [1]
COc1cc(NCc2ccccc2O)cc(Br)n1 [Example 1, 2-[(2-Bromo-6-methoxypyridin-4-ylamino)methyl]phenol]	137 °C	20 nM
Oc1ccccc1CNc1ccnc(Cl)c1 [Example 2, 2-[(2-Chloropyridin-4-ylamino)methyl]phenol]		4 nM
Oc1ccc(F)cc1CNc1ccnc(Br)c1 [Example 4, 2-[(2-Bromopyridin-4-ylamino)methyl]-4-fluorophenol]		20 nM
COc1cc(NCc2ccccc2O)ccn1 [Example 5, 2-[(2-Methoxypyridin-4-ylamino)methyl]phenol]		50 nM
